Measurements published in PubChem BioAssay AID248 (DTP/NCI, 2004).
Several values for one entry are separate records, joined by “and”; a condition that tells them apart may be missing. Identical values can stand only once. Toxic doses and inconclusive results are not listed. No stated cut-off is given here; in the data, active means T/C of 150% or more; inactive means T/C below 125%.

System: L1210 leukemia ip in BDF1 mice, survival T/C
Test: NCI In Vivo Anticancer Drug Screen. Data for tumor model L1210 Leukemia (intraperitoneal) in B6D2F1 (BDF1) mice
Details: endpoint: mean survival time, higher = longer survival
Method in brief: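 In this screen, tumor-bearing mice given compound are compared to those given vehicle, and their survival values are reported as a treated-to-control quotient.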

[1] = dose: 100.0 mg/kg/injection, schedule: Q01DX009 (ip), vehicle: Klucel (hydroxypropylcellulose) (HPC)
[2] = dose: 100.0 mg/kg/injection, schedule: Q04DX003 (ip), vehicle: saline
[3] = dose: 200.0 mg/kg/injection, schedule: Q01DX009 (ip), vehicle: Klucel (hydroxypropylcellulose) (HPC)
[4] = dose: 200.0 mg/kg/injection, schedule: Q04DX003 (ip), vehicle: saline
[5] = dose: 400.0 mg/kg/injection, schedule: Q01DX009 (ip), vehicle: Klucel (hydroxypropylcellulose) (HPC)
[6] = dose: 400.0 mg/kg/injection, schedule: Q04DX003 (ip), vehicle: saline
[7] = dose: 50.0 mg/kg/injection, schedule: Q01DX009 (ip), vehicle: Klucel (hydroxypropylcellulose) (HPC)
[8] = dose: 100.0 mg/kg/injection, schedule: Q01DX009 (ip), vehicle: carboxymethylcellulose (CMC)
[9] = dose: 100.0 mg/kg/injection, schedule: Q04DX002 (ip), vehicle: carboxymethylcellulose (CMC)
[10] = dose: 100.0 mg/kg/injection, schedule: Q04DX003 (ip), vehicle: carboxymethylcellulose (CMC)
[11] = dose: 100.0 mg/kg/injection, schedule: Q04DX002 (ip), vehicle: saline with Tween-80
[12] = dose: 200.0 mg/kg/injection, schedule: Q04DX002 (ip), vehicle: saline with Tween-80
[13] = dose: 400.0 mg/kg/injection, schedule: Q04DX002 (ip), vehicle: saline with Tween-80
[14] = dose: 100.0 mg/kg/injection, schedule: Q04DX003 (ip), vehicle: Klucel (hydroxypropylcellulose) (HPC)
[15] = dose: 200.0 mg/kg/injection, schedule: Q04DX003 (ip), vehicle: Klucel (hydroxypropylcellulose) (HPC)
[16] = dose: 400.0 mg/kg/injection, schedule: Q04DX003 (ip), vehicle: Klucel (hydroxypropylcellulose) (HPC)

Measured: T/C

CCCCOCc1cc(CN2CCN(C)CC2)c(O)c2ncccc12
inactive: dose: 25.0 mg/kg/injection, schedule: Q04DX002 (ip), vehicle: saline 89 % of control | dose: 50.0 mg/kg/injection, schedule: Q04DX002 (ip), vehicle: saline 95 % of control | dose: 100.0 mg/kg/injection, schedule: Q04DX002 (ip), vehicle: saline 89 % of control

O=c1[nH]c(=O)[nH]c(=O)[nH]1
inactive: [1] 100 % of control | [2] 90 % of control | [3] 91 % of control | [4] 90 % of control | [5] 101 % of control | [6] 98 % of control

Nc1ccc(Nc2ccc([N+](=O)[O-])cc2)cc1
inactive: dose: 75.0 mg/kg/injection, schedule: Q01DX009 (ip), vehicle: Klucel (hydroxypropylcellulose) (HPC) 91 % of control | dose: 150.0 mg/kg/injection, schedule: Q01DX009 (ip), vehicle: Klucel (hydroxypropylcellulose) (HPC) 105 % of control | dose: 300.0 mg/kg/injection, schedule: Q01DX009 (ip), vehicle: Klucel (hydroxypropylcellulose) (HPC) 100 % of control

COc1ccc(CCBr)cc1
inactive: [1] 97 % of control | [3] 97 % of control | [5] 95 % of control

CC(=O)N(N=O)c1c(C)cccc1C
inactive: dose: 50.0 mg/kg/injection, schedule: Q01DX001 (ip), vehicle: saline 102 % of control | dose: 100.0 mg/kg/injection, schedule: Q01DX001 (ip), vehicle: saline 105 % of control

CC(=O)Oc1ccc2c3c(ccc2c1)CCCC3
inactive: [7] 90 % of control | [3] 90 % of control

C[N+](C)(C)c1ccc(/C=C2/CCCCC2=O)cc1
inactive: dose: 12.5 mg/kg/injection, schedule: Q01DX009 (ip), vehicle: saline 117 % of control | dose: 12.5 mg/kg/injection, schedule: Q04DX003 (ip), vehicle: saline 97 % of control | dose: 25.0 mg/kg/injection, schedule: Q01DX009 (ip), vehicle: saline 100 % of control | dose: 25.0 mg/kg/injection, schedule: Q04DX003 (ip), vehicle: saline 92 % of control | dose: 50.0 mg/kg/injection, schedule: Q01DX009 (ip), vehicle: saline 103 % of control | dose: 50.0 mg/kg/injection, schedule: Q04DX003 (ip), vehicle: saline 106 % of control

C1=Nc2ccccc2/C1=C/c1ccc2c(c1)OCO2
inactive: [8] 97 % of control and 102 % of control | [9] 93 % of control and 102 % of control | [10] 98 % of control | dose: 200.0 mg/kg/injection, schedule: Q01DX009 (ip), vehicle: carboxymethylcellulose (CMC) 96 % of control and 87 % of control | dose: 200.0 mg/kg/injection, schedule: Q04DX002 (ip), vehicle: carboxymethylcellulose (CMC) 93 % of control and 98 % of control | dose: 200.0 mg/kg/injection, schedule: Q04DX003 (ip), vehicle: carboxymethylcellulose (CMC) 93 % of control | dose: 400.0 mg/kg/injection, schedule: Q01DX009 (ip), vehicle: carboxymethylcellulose (CMC) 93 % of control and 94 % of control | dose: 400.0 mg/kg/injection, schedule: Q04DX002 (ip), vehicle: carboxymethylcellulose (CMC) 104 % of control and 107 % of control | dose: 400.0 mg/kg/injection, schedule: Q04DX003 (ip), vehicle: carboxymethylcellulose (CMC) 96 % of control

COc1ccc(/C(C#N)=C/c2ccc(N(C)CCC#N)cc2)cc1
inactive: dose: 12.5 mg/kg/injection, schedule: Q01DX009 (ip), vehicle: Klucel (hydroxypropylcellulose) (HPC) 103 % of control | dose: 25.0 mg/kg/injection, schedule: Q01DX009 (ip), vehicle: Klucel (hydroxypropylcellulose) (HPC) 100 % of control

C(CC1CCCC1)=C(CCC1CCCC1)CCC1CCCC1
inactive: dose: 50.0 mg/kg/injection, schedule: Q04DX002 (ip), vehicle: saline with Tween-80 103 % of control | [11] 92 % of control | [12] 95 % of control | [13] 92 % of control

CCOC(=O)C1Oc2ccccc2O1
inactive: dose: 100.0 mg/kg/injection, schedule: Q01DX009 (ip), vehicle: saline with Tween-80 105 % of control | [11] 113 % of control | dose: 200.0 mg/kg/injection, schedule: Q01DX009 (ip), vehicle: saline with Tween-80 99 % of control | [12] 100 % of control | dose: 400.0 mg/kg/injection, schedule: Q01DX009 (ip), vehicle: saline with Tween-80 101 % of control | [13] 97 % of control

COc1ccc(S(=O)(=O)NC(=O)NCCC=C(C)C)cc1
inactive: [7] 100 % of control | [1] 95 % of control | [14] 106 % of control | [3] 91 % of control | [15] 97 % of control | [16] 101 % of control

OC1C(O)C(O)C(O)C(O)C1O (stereo not given)
inactive: dose: 100.0 mg/kg/injection, schedule: Q01DX009 (ip), vehicle: saline 97 % of control | dose: 100.0 mg/kg/injection, schedule: Q04DX003 (ip), vehicle: saline with Tween-80 104 % of control | [2] 98 % of control | dose: 200.0 mg/kg/injection, schedule: Q01DX009 (ip), vehicle: saline 92 % of control | dose: 200.0 mg/kg/injection, schedule: Q04DX003 (ip), vehicle: saline with Tween-80 98 % of control | [4] 98 % of control | dose: 375.0 mg/kg/injection, schedule: Q01DX001 (ip), vehicle: carboxymethylcellulose (CMC) 100 % of control | dose: 400.0 mg/kg/injection, schedule: Q01DX009 (ip), vehicle: saline 97 % of control | dose: 400.0 mg/kg/injection, schedule: Q04DX003 (ip), vehicle: saline with Tween-80 98 % of control | [6] 107 % of control | dose: 750.0 mg/kg/injection, schedule: Q01DX001 (ip), vehicle: carboxymethylcellulose (CMC) 98 % of control | dose: 1500.0 mg/kg/injection, schedule: Q01DX001 (ip), vehicle: carboxymethylcellulose (CMC) 98 % of control

COC1OC(C)C(OS(C)(=O)=O)C2OC(C)(C)OC12 (stereo not given)
inactive: [7] 103 % of control | [1] 97 % of control | [14] 124 % of control | [3] 100 % of control | [15] 107 % of control | [5] 112 % of control | [16] 101 % of control

S=C(NC1CCCCC1)NC1CC2C=CC1C2 (stereo not given)
inactive: [11] 90 % of control | [12] 93 % of control | [13] 93 % of control

CCOC(=O)C1CC(Cl)c2c(ccc3cc(OC)ccc23)N1 (stereo not given)
inactive: dose: 25.0 mg/kg/injection, schedule: Q01DX001 (ip), vehicle: carboxymethylcellulose (CMC) 100 % of control | dose: 25.0 mg/kg/injection, schedule: Q01DX009 (ip), vehicle: carboxymethylcellulose (CMC) 98 % of control and 92 % of control | dose: 25.0 mg/kg/injection, schedule: Q04DX002 (ip), vehicle: carboxymethylcellulose (CMC) 93 % of control and 95 % of control | dose: 25.0 mg/kg/injection, schedule: Q04DX003 (ip), vehicle: carboxymethylcellulose (CMC) 97 % of control | dose: 50.0 mg/kg/injection, schedule: Q01DX001 (ip), vehicle: carboxymethylcellulose (CMC) 107 % of control | dose: 50.0 mg/kg/injection, schedule: Q01DX009 (ip), vehicle: carboxymethylcellulose (CMC) 100 % of control and 91 % of control | dose: 50.0 mg/kg/injection, schedule: Q04DX002 (ip), vehicle: carboxymethylcellulose (CMC) 101 % of control and 103 % of control | dose: 50.0 mg/kg/injection, schedule: Q04DX003 (ip), vehicle: carboxymethylcellulose (CMC) 95 % of control | [8] 93 % of control | [9] 95 % of control and 108 % of control | [10] 95 % of control
